Results reported in patent publication US20050059032A1, “Methods & compositions relating to drug-induced arrhythmia” (Pfizer Inc, priority 2002, published 2005).

System: patients with congestive heart failure or recent myocardial infarction
Details: human, in vivo
Source text: Genomic DNA samples were obtained from the blood samples of patients enrolled in the DIAMOND study (Danish Investigations of Arrhythmia and Mortality on Dofetilide) or a clinical protocol similar in nature to the DIAMOND Study. These studies focused on the effects of Dofetilide on two populations of patients, one with congestive heart failure and one with recent myocardial infarction associated with left ventricular dysfunction (ejection fraction <35%) (Moller, M., (1996) Lancet, 348(9041):1597-8; Moller, M. et al., (1997) Congest Heart Fail., 7(3):146-150). DNA samples were obtained from 105 patients in total. Of the 105 patients, 7 developed torsade de pointes (TdP) upon treatment with Dofetilide while the remaining 98 patients responded to treatment without developing TdP as a side effect.

For `CN(CCOc1ccc(NS(C)(=O)=O)cc1)CCc1ccc(NS(C)(=O)=O)cc1` [Dofetilide], the “patients who developed torsade de pointes (TdP) upon treatment” value was 7.
